Reference: patent US20220054493A1, “INHIBITORS OF NGAL PROTEIN” (INSERM (INSTITUT NATIONAL DE LA SANTÉ ET DE LA RECHERCHE …, priority 2019, published 2022)

Legend:
NGAL [1] = molecular target: T1, NGAL (Homo sapiens, UniProt P80188); experiment: NGAL-induced IL6 secretion in human cardiac fibroblasts (ELISA); type: cell-based; conditions: NGAL 10 ng/ml, FIGS. 1 and 2 panel A
T1 construct: purchased R&D Systems
Method: Cell Culture Human cardiac fibroblasts (primary culture) were obtained from Promocell and maintained in medium (Fibroblast Media 3). Cells were cultured according to the manufacturer's instructions and used between passages 5 and 7. Cells were stimulated with aldosterone (10^-8 M, Sigma) or recombinant hNGAL (500 ng/mL, R&D Systems) for 24 h for protein analysis. Mouse kidney fibroblasts (MKF), were isolated from Wild Type (WT) mice. Briefly, mice 7 to 8 weeks were sacrificed by cervical dislocation and kidneys were cleaned and rinsed in cold DPBS (Dulbecco's Phosphate-Buffered Saline). The renal cortex was minced and incubated in Dulbecco's modified eagle medium/Nutrient mixture F-12 (DMEM/F12, Sigma) containing 1 mg/mL collagenase A (Roche) during 25 minutes at 37° C. The digestion was inactivated by adding culture medium (DMEM/F12+10% FBS) then the cell suspension was passed through a 100-μm cell strainer. After centrifugation, the pellet (containing MKF) was diluted with culture medium then plated in 75 cm^2 culture flask. After 24 hours MKF were washed with DPBS before replacement of fresh culture medium. Thereafter, culture medium was changed every 48 hours. Once 70-80% confluent, MKF were trypsinized and plated in 12 or 6-well plates. For experimental use, MKF were starved with culture medium containing only 3% FBS. MKF were treated with mNGAL (500 ng/mL, R&D Systems) for 24 h for gene expression analysis.
NGAL, IL6 and collagen type I concentrations were measured in cardiac tissue and cell supernatants, respectively, by ELISA according to the manufacturer's instructions (R&D Systems).
The inhibitory activity of the compounds was evaluated on the NGAL-induced IL6 secretion (NGAL 10 ng/ml) in human cardiac fibroblasts.
Inhibitory activities of 23 second generation compounds derived from GPZ614741 and GPZ058225 were evaluated on the NGAL-induced IL6 secretion (NGAL 10 ng/ml) in human cardiac fibroblasts.

NGAL [2] = molecular target: T1, NGAL; experiment: NGAL-induced profibrotic marker synthesis in human cardiac fibroblasts (western blot); type: cell-based; conditions: FIGS. 1 and 2 panel C
Method: (§1) Cell Culture Human cardiac fibroblasts (primary culture) were obtained from Promocell and maintained in medium (Fibroblast Media 3). Cells were cultured according to the manufacturer's instructions and used between passages 5 and 7. Cells were stimulated with aldosterone (10^-8 M, Sigma) or recombinant hNGAL (500 ng/mL, R&D Systems) for 24 h for protein analysis. Mouse kidney fibroblasts (MKF), were isolated from Wild Type (WT) mice. Briefly, mice 7 to 8 weeks were sacrificed by cervical dislocation and kidneys were cleaned and rinsed in cold DPBS (Dulbecco's Phosphate-Buffered Saline). The renal cortex was minced and incubated in Dulbecco's modified eagle medium/Nutrient mixture F-12 (DMEM/F12, Sigma) containing 1 mg/mL collagenase A (Roche) during 25 minutes at 37° C. […]
Total protein aliquots of 20 μg were prepared from cardiac homogenates and electrophoresed on SDS polyacrylamide gels and transferred to Hybond-c Extra nitrocellulose membranes (Amersham Biosciences). […] After densitometric analyses, optical density values were expressed as arbitrary units. Results are expressed as an n-fold increase over the values of the control group in densitometric arbitrary units.
The inhibitory activity of the compounds was evaluated on the NGAL-induced IL6 secretion (NGAL 10 ng/ml) in human cardiac fibroblasts. […]

human microsomes = experiment: Stability in human microsomes; type: in vitro ADME
Method: Two specific toxicity assays have been performed to assess hepatoxicity and cardiotoxicity. Hepatotoxicity was evaluated in isolated hepatocytes from swiss mice and determined by the MTT colorimetric assay. Cardiotoxicity was evaluated using the commercially available Predictor hERG fluorescence polarization kit (Thermo Fisher Scientific). Several ADME assays have been carried out on the compounds generated throughout the project. The following experiments were undertaken: Stability in human microsomes, binding to human plasma protein, and CYP3A4 inhibition assay (Vivid CYP3A4 assay, Thermo Fisher Scientific). Physico-chemical properties were also assessed such as aqueous solubility and chemical stability.

CKD Mouse Model = experiment: Renal profibrotic and inflammatory gene expression in the CKD mouse model; type: in vivo, mice; conditions: kidney, two months administration
Method: Chronic kidney disease (CKD) was induced by subtotal nephrectomy (Nx) in eight-weeks-old FVB male mice (25-26 g). All surgeries were performed under ketamine/xylazine anaesthesia. Briefly, the left kidney was exposed, and the upper and lower poles were tied with a poly-glycolic acid suture line. The peritoneum and skin were then sutured, and the animals were returned to their individual cages. After one week of recovery, the second kidney was removed. Removal of the second kidney represents TO. Sham mice were subjected to the same surgical procedures but neither renal poles nor the right kidney were removed. Mice were monitored for any sign of distress, and those observed to be experiencing severe, unrelievable pain were euthanized. Renal failure was assessed by the measure of plasma creatinine and urea with an automatic analyser (Konelab 20i; Thermo Fisher Scientific, Vernon Hills, Ill.) at weeks 4 and 10 post-Nx.
(§2) Frozen tissues (kidneys, heart) were homogenized in TRIzol (Life Technologies, 15596018) using FastPrep beads (MP-Bio, 6913-100). cDNAs were generated using the Superscript II reverse transcriptase kit (Invitrogen, 18064022), and qPCR was performed as previously described. Briefly, transcript levels were analysed in a CFX396 apparatus (Biorad). The reactions were performed in duplicate for each sample using the IQ SYBR Green supermix Kit (Biorad, 170-8882). […]

recombinant murine NGAL = molecular target: T2, recombinant murine NGAL (Mus musculus, UniProt P11672); experiment: NGAL-induced profibrotic and proinflammatory gene expression in renal fibroblasts; type: cell-based; conditions: renal fibroblast cells stimulated with recombinant murine NGAL
T2 construct: purchased R&D Systems
T2 sequence (P11672 21-200): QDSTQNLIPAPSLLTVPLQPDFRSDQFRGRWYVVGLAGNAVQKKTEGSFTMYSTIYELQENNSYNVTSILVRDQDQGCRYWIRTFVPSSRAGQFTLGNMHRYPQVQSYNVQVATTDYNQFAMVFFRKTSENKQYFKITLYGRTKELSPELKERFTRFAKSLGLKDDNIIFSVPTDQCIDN
Method: as §1, with “C. The digestion was inactivated by adding culture medium (DMEM/F12+10% FBS) then the cell suspension was passed through a 100-μm cell strainer. After centrifugation, the pellet (containing MKF) was diluted with culture medium then plated in 75 cm^2 culture flask.” for “C.”
as §2, with “(Biorad).” for “(Biorad). The reactions were performed in duplicate for each sample using the IQ SYBR Green supermix Kit (Biorad, 170-8882).”

T1 sequence (P80188 21-198): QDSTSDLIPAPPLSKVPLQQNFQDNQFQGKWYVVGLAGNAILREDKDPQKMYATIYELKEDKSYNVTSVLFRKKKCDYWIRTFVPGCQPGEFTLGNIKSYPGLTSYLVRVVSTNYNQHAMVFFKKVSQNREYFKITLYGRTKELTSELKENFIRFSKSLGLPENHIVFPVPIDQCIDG

## CC(=O)c1cccc(S(=O)(=O)NCc2ccccc2-n2cccn2)c1 [GPZ614741]
NGAL [1]
  NGAL-induced IL6 secretion: inhibited
NGAL [2]
  NGAL-induced profibrotic marker (col1, col III, fibronectin, Gal3, OPN) synthesis: inhibited
Human microsomes; after 2 h
  microsomes degradation, left after 2 h: 2.2%
Human microsomes; human microsomes
  Micro Stability: 2.19%
CKD Mouse Model; FIG. 15A
  profibrotic target genes (collagen1, fibronectin, alphaSMA): blunted the increase
CKD Mouse Model; FIG. 15B
  inflammatory markers (IL6, MCP1, TNFalpha): no effects
Recombinant murine NGAL; FIG. 16
  NGAL-induction of inflammatory (IL6, MCP1) gene expression: inhibited
Recombinant murine NGAL; FIG. 16A
  NGAL-induction of profibrotic (Collagen1, fibronectin, aSMA) gene expression: inhibited
